Laboratory results: US20210236391A1, “Dental Product, use of a Dental Product and methods of use of a dental product” (DR HEFF'S PRODUCTS LIMITED, priority 2015, published 2021)
“Also recorded” adds a separate entry of the source.

What was measured:
[1] = Rhodamine B fluorescence intensity (lesion porosity) after in vitro pH-proteolytic cycling; design: species or system bovine; details: for decrease percentage of the mean Rhodamine fluorescence (F) exhibited by caries lesions: after treatments (suspended in artificial saliva, 5 times per day for 3 minutes) and pH-proteolytic cycling for 8 days
Description: An objective of the experimental study was to investigate the effects of mints containing bioactive agents, specifically the xylitol, ACP and eGCG, in the re-mineralization of root dentin surfaces. […] The caries lesions depths and porosity as well as mineral density (hydroxyapatite content) were estimated using fluorescence microscopy and micro-computed tomography. Extracted sound bovine incisors were freshly collected from a slaughterhouse, cleaned and stored at 4° C. in 0.1% thymol for no longer than 2 weeks. Two root fragments (5×4×1 mm) from the cervical portion (mesial and distal) of the root were obtained from each tooth using diamond disk mounted in a cutting machine (Isomet 1000, Buehler, Lake Bluff, IL, USA). The dentin surfaces were polished using #600 and #800 abrasive paper (Carbimet, Buehler) under constant water irrigation. The entire surface of the fragments was sealed with acid-resistant nail polish, except for a 4×3 mm window on the polished dentin surface. The root fragments were placed in a demineralization solution (2.2 mM CaCl2.2H2O, 2.2 mM KH2PO4, 50 mM acetate, pH 4.6) for 96 h at 37° C. to create initial caries lesions of approximately 120 μm-deep (1). Following lesion development, the fragments were rinsed thoroughly with deionized water, and half of the specimens' windows were covered with an acid-resistant nail polish to maintain the baseline lesion. […] The concentrations were optimized to simulate the in vivo conditions in which the normal salivary flow is 0.5 mL/min (2). Thus, one third of the mints (g) were dissolved in 0.5 ml of artificial saliva and the ingredients concentrations were kept at same ratio as in the original mint formulation. […] All solutions were prepared daily prior to use. In addition to pH cycling, the overnight re-mineralization solutions had bacterial collagenase from Chlostridium Histolycum (100 μg/ml) to simulate enzymatic challenge. Each specimen was sectioned perpendicularly to the varnished area so that each section included the baseline and post-treatment lesions. Half of each sample was used for fluorescence microscopy and the other half was used for micro-computed tomography. […] The assumption of equality of variances and normal distribution of errors were verified using Levene's test. Analysis of variance (ANOVA) followed by Scheffe or Game-Howell tests were performed at α=0.05 using SPSS 20 software.

[2] = Apparent mineral density by micro-computed tomography after in vitro pH-proteolytic cycling; design: species or system bovine; details: for increase percentage of the apparent mineral density (mg HA/ccm): mean values after pH-proteolytic cycling and treatments, micro-CT; for effect on mineral density of the caries lesion (in words): after pH-proteolytic cycling and treatments, compared to AS control
Description: An objective of the experimental study was to investigate the effects of mints containing bioactive agents, specifically the xylitol, ACP and eGCG, in the re-mineralization of root dentin surfaces. […] The caries lesions depths and porosity as well as mineral density (hydroxyapatite content) were estimated using fluorescence microscopy and micro-computed tomography. Extracted sound bovine incisors were freshly collected from a slaughterhouse, cleaned and stored at 4° C. in 0.1% thymol for no longer than 2 weeks. Two root fragments (5×4×1 mm) from the cervical portion (mesial and distal) of the root were obtained from each tooth using diamond disk mounted in a cutting machine (Isomet 1000, Buehler, Lake Bluff, IL, USA). The dentin surfaces were polished using #600 and #800 abrasive paper (Carbimet, Buehler) under constant water irrigation. The entire surface of the fragments was sealed with acid-resistant nail polish, except for a 4×3 mm window on the polished dentin surface. The root fragments were placed in a demineralization solution (2.2 mM CaCl2.2H2O, 2.2 mM KH2PO4, 50 mM acetate, pH 4.6) for 96 h at 37° C. to create initial caries lesions of approximately 120 μm-deep (1). Following lesion development, the fragments were rinsed thoroughly with deionized water, and half of the specimens' windows were covered with an acid-resistant nail polish to maintain the baseline lesion. […] The concentrations were optimized to simulate the in vivo conditions in which the normal salivary flow is 0.5 mL/min (2). Thus, one third of the mints (g) were dissolved in 0.5 ml of artificial saliva and the ingredients concentrations were kept at same ratio as in the original mint formulation. […] All solutions were prepared daily prior to use. In addition to pH cycling, the overnight re-mineralization solutions had bacterial collagenase from Chlostridium Histolycum (100 μg/ml) to simulate enzymatic challenge. Each specimen was sectioned perpendicularly to the varnished area so that each section included the baseline and post-treatment lesions. Half of each sample was used for fluorescence microscopy and the other half was used for micro-computed tomography. Specimens (n=6 per group) were fixed in 10% neutral buffered formalin for 24 h. Specimens were held securely in a specimen holder, which were soaked with phosphate-buffered saline (PBS). […] The manufacturer's software was used to filter noise and segment the data at a threshold of 220. Tissue mineral density (based on a standard calibration phantom provided by the manufacturer) was determined (mg/cc of hydroxyapatite). […] The assumption of equality of variances and normal distribution of errors were verified using Levene's test. […]

[3] = In vitro pH-proteolytic cycling model, overall re-mineralization and tissue observations; design: species or system bovine
From the text: (§1) An objective of the experimental study was to investigate the effects of mints containing bioactive agents, specifically the xylitol, ACP and eGCG, in the re-mineralization of root dentin surfaces. […] The caries lesions depths and porosity as well as mineral density (hydroxyapatite content) were estimated using fluorescence microscopy and micro-computed tomography.
as §1, with “The” for “An”, “this” for “the experimental”, “agents (e.g.” for “agents, specifically the”, “eGCG)” for “eGCG,”, “micro computed” for “micro-computed”
Extracted sound bovine incisors were freshly collected from a slaughterhouse, cleaned and stored at 4° C. in 0.1% thymol for no longer than 2 weeks. Two root fragments (5×4×1 mm) from the cervical portion (mesial and distal) of the root were obtained from each tooth using diamond disk mounted in a cutting machine (Isomet 1000, Buehler, Lake Bluff, IL, USA). The dentin surfaces were polished using #600 and #800 abrasive paper (Carbimet, Buehler) under constant water irrigation. The entire surface of the fragments was sealed with acid-resistant nail polish, except for a 4×3 mm window on the polished dentin surface. […]

[4] = five xylitol lozenges spaced across the day, caries-active adults; cited from earlier work
[5] = Caries lesion depth by fluorescence microscopy after in vitro pH-proteolytic cycling; design: species or system bovine; details: after treatments and pH-proteolytic cycling for 8 days
Description: An objective of the experimental study was to investigate the effects of mints containing bioactive agents, specifically the xylitol, ACP and eGCG, in the re-mineralization of root dentin surfaces. […] The caries lesions depths and porosity as well as mineral density (hydroxyapatite content) were estimated using fluorescence microscopy and micro-computed tomography. Extracted sound bovine incisors were freshly collected from a slaughterhouse, cleaned and stored at 4° C. in 0.1% thymol for no longer than 2 weeks. […] Half of each sample was used for fluorescence microscopy and the other half was used for micro-computed tomography. […] Samples were analyzed with a Fluorescence Microscope (DM16000 B, Leica), using TEX and DIC (differential interference contrast) channels. Fluorescence intensity line profiles obtained in TEX channel images of the pre and post-treatment lesions were analyzed in Image J Software (NIH), thereby providing mean intensity values (per pixel) for red emission channel of each image. The fluorescence intensity is directly related to the porosity of the de-mineralized dentin, where increased porosity is directly related to increased fluorescence intensity. Fluorescence data was presented as percentage difference from post-treatment and pre-treatment lesions of each specimen. […]

Compound | decrease percentage of the mean Rhodamine fluorescence (F) exhibited by caries lesions [1] | increase percentage of the apparent mineral density (mg HA/ccm) [2] | effect on mineral density of the caries lesion (in words) [2] | dental tissue loss ([3]; after pH-proteolytic cycling and treatments, in artificial saliva) | caries re-mineralization (overall conclusion) ([3]; artificially induced root caries, in vitro pH-proteolytic cycling) | caries-preventive effect on root surfaces [4] | incidence of smooth-surface, occusal-surface or proximal-surface caries, xylitol vs control participants [4] | caries lesion depth change from initial lesions (in words) [5] | lesion porosity / fluorescence decrease compared to AS (negative control), statistical significance ([1]; after treatments and pH-proteolytic cycling for 8 days)
[F-].[Na+] [NaF, sodium fluoride] | 5.60% | 165.53% |  |  |  |  |  |  | 
OC[C@@H](O)[C@H](O)[C@@H](O)CO [xylitol] | 34.92% |  | does not help to increase mineral density | dental tissue loss occurs; also recorded: Dental tissue loss was mainly observed | no significant effect | appears to have a caries-preventive effect on root surfaces | no statistically significant difference |  | 
O=C(O[C@@H]1Cc2c(O)cc(O)cc2O[C@@H]1c1cc(O)c(O)c(O)c1)c1cc(O)c(O)c(O)c1 [eGCG, epigallocatechin gallate] | 85.72% | 70.12% | promotes mineral density similar to fluoride; also recorded: increased mineral density |  |  |  |  | Significant (% caries lesion depth) decrease | statistically significant differences; also recorded: significant decrease in lesion porosity
